Experimental data: patent EP0298820A1, “Peptide derivatives and their therapeutic application” (INSTITUT NATIONAL DE LA SANTE ET DE LA RECHERCHE MEDICALE …, priority 1987, dated 1989)

Tested on: tumeur M₄
Assay: Inhibition of development of lung metastases (M4 tumour cells injected i.v. with peptide)
Type: in vivo, souris C57BL/6
Conditions: injected in tail vein with 10⁵ M₄ cells, lung colonies counted after 15 days, PBS control 117,5 ± 14,4
Procedure: On a utilisé la tumeur M₄, une sous-lignée obtenue par sélection d'un sarcome induit par le benzopyrène chez la souris C57BL/6 (Mantovani Int. J. Cancer, 22, 741, 1978).
Les cellules M₄ ont été désagrégées avec de la DNAse et de la collagènase pendant 30 minutes à 37°C. On a lavé les cellules deux fois avec du PBS et on les a remis en suspension dans le même tampon à la concentration de […]. On a injecté lentement dans le veine de la queue de souris C57BL/6 0,2 ml de PBS contenant différentes concentrations de peptide et 10⁵ cellules M₄/souris.
Au bout de 15 jours on a tué les souris et excisé les poumons, et on les a fixés avec une solution de Bouin. On a compté visuellement les colonies. Les résultats obtenus avec le peptide KQRGDF sont donnés dans le tableau suivant.

Q: Which results are given for “H-KQRGDF-OH [KQRGDF, H-Lys-Gln-Arg-Gly-Asp-Phe-OH]”?
A: Nombre de colonie (0,75 mg/souris): 25,3 ± 9,4; Nombre de colonie (1,5 mg/souris): 0,2; Nombre de colonie (3,0 mg/souris): 0
